According to patent US11129835B2, “Methods and compositions for the inhibition of PIN1” (Beth Israel Deaconess Medical Center, Inc., priority 2012, dated 2021):

Legend:
[1] = target: T1, Pin1 (Homo sapiens, UniProt Q13526); experiment: Pin1 fluorescence polarization competition assay with Tamra-probe (secondary); details: for Emax: read-out: Tamra Secondary Efficacy
Method: An assay was developed for the identification of inhibitors of Pin1. […] Candidate compounds were screened in a concentration-titration series (e.g., 57 μM to 0.7 nM).
(§1) Pin1 (0.6 μM) was dispensed into black, solid 1536-well plates (32 rows by 48 columns) at 2 μL/well in Pin1 buffer (10 mM HEPES (pH 7.5), 10 mM NaCl, 0.01% Tween20, 1 mM DTT, and 1% glycerol). Next, 23 nL of compound or DMSO was delivered to each well using a pin tool (tip wash sequence: DMSO, IPA, MeOH, 3 s vacuum dry). Two μL of Pin1-1b-HiFluor488 peptide in buffer (10 mM HEPES (pH 7.5), 10 mM NaCl, 0.01% Tween20, 1 mM DTT, and 1% glycerol, 0.02 μM Pin1-1b-HiFluor488) or DMSO was then dispensed to each well using a pin tool (tip wash sequence: DMSO, IPA, MeOH, 3 s vacuum dry), and plates were incubated at room temperature for 10 min (Table 2). Each plate included controls with no candidate inhibitory compound (32 wells), with unlabeled Pin1-1c titration (3.5 mM to 0.020 mM in a 1:2 dilution series including 2 replicates per concentration; 32 wells), and without Pin1 (64 wells).
(§2) The fluorescence polarization signal of each well was measured on a ViewLux® plate reader using a 480/20 nm excitation filter and 540/25 nm S and P emission filters with a 20 second exposure with 2× binning (Table 2). Percent inhibitory activity was determined from corrected fluorescence polarization values.
(§3) Concentration-response curves were fitted to the signals arising from the resulting fluorescence polarization. The concentration-effect curves were then classified based on curve quality (r^2), response magnitude, and degree of measured activity. Compounds were subsequently categorized based on their curve class.
A further secondary assessment was accomplished by replacing the HiFluor-488-labeled probe with Tamra-probe, a red-shifted fluorophore.

[2] = target: T1, Pin1; experiment: confirmatory Pin1 fluorescence polarization competition assay (Alexa488 reconfirmed); details: for Emax: read-out: Alexa488 Reconfirmed Efficacy;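 for all read-outs here: Pin1 competition with a HiFluor488-labelled peptide probe, read as fluorescence polarization after 10 min at room temperature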
Method: (§4) The goal of this assay was to identify small-molecule inhibitors of Pin1 using a fluorescence polarization competition assay (FIG. 1). […] Candidate compounds were screened in a concentration-titration series (e.g., 57 μM to 0.7 nM).
as §1, §2, §3

[3] = target: T1, Pin1; experiment: Pin1 fluorescence polarization competition assay, primary qHTS (HiFluor-488 / Alexa488 probe);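 note: Pin1 protein with fluorescent peptide probe, compound displacement read by fluorescence polarization, percent inhibition derived from corrected polarization values, concentration-response curves in 1536-well format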
Method: as §4, §1, §2, §3
Curves showing change polarized fluorescence may be categorized into 5 classes. Class 1 includes complete curves, having 2 asymptotes and an r^2 value of ≥0.9, with an efficacy of either >80% (class 1.1) or ≤80% (class 1.2). Class 1 curves may also be classified as noisy curves when efficacy is >80% and r^2<0.9 (class 1.3) or when efficacy is ≤80% and r^2<0.9 (class 1.4). Class 2 includes incomplete curves having 1 asymptote and an r^2 value of either >0.9 (subclass a) or <0.9 (subclass b), with an efficacy of either >80% (class 2.1) or ≤80% (class 2.2). Class 2 curves may also be classified as noisy curves when efficacy is >80% and r^2<0.9 (class 2.3) or when efficacy is ≤80% and r^2<0.9 (class 2.4). Class 3 includes single point activity curves having 1 asymptote and an efficacy >3 SD from the mean activity of the sample field at the highest tested concentration. […] A fifth class captures any curves not otherwise classified (FIG. 4).

[4] = Average HTS Potency, average over Alexa488 primary, Alexa488 reconfirmed and Tamra secondary assays
[5] = Alexa488 Primary Potency, primary qHTS
[6] = read-out: Alexa488 Primary Efficacy

T1 sequence (Q13526 whole entry): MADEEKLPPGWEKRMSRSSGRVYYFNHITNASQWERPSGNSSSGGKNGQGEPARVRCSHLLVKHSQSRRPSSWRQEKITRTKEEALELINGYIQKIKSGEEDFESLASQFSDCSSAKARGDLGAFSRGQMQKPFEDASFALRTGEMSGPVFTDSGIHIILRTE

O=C(O)c1cc2cccc([N+](=O)[O-])c2[nH]1 [Compound 22]
IC50 [1]: 12 µM | Tamra Secondary Curve Class ([1]; Tamra-probe): 2.2 (≤80% (class 2.2)) | Emax [1]: 82% | IC50 [2]: 21 µM | Alexa488 Reconfirmed Curve Class ([2]; confirmatory retest): 2.2 (≤80% (class 2.2)) | Emax [2]: 93% | IC50 [3, 4]: 17 µM | Emax ([3]; read-out: Average HTS Efficacy): 88%

Cc1ccc(C)c2c1NC(C(=O)O)C1CC=CC21 (centres unmarked) [Compound 7]
IC50 [1]: 14 µM | Tamra Secondary Curve Class ([1]; Tamra-probe): 2.2 (≤80% (class 2.2)) | Emax [1]: 63% | Alexa488 Reconfirmed Curve Class ([2]; confirmatory retest): 2.2 (≤80% (class 2.2)) | Emax [2]: 91% | IC50 [3, 5]: 45 µM | IC50 [3, 4]: 29 µM | Alexa488 Primary Curve Class ([3]; primary qHTS): 1.2 (≤80% (class 1.2)) | Emax [3, 6]: 63% | Emax ([3]; read-out: Average HTS Efficacy): 72%

CCCCOc1ccc(C(=O)N/C(=C/c2cccc([N+](=O)[O-])c2)C(=O)O)cc1 [Compound 36]
IC50 [1]: 19 µM | Tamra Secondary Curve Class ([1]; Tamra-probe): 2.2 (≤80% (class 2.2)) | Emax [1]: 76% | IC50 [2]: 14 µM | Alexa488 Reconfirmed Curve Class ([2]; confirmatory retest): 2.2 (≤80% (class 2.2)) | Emax [2]: 62% | IC50 [3, 5]: 11 µM | IC50 [3, 4]: 15 µM | Emax [3, 6]: 101% | Emax ([3]; read-out: Average HTS Efficacy): 80%

CC(=O)Nc1cc(=O)c2[nH]o[nH]c=2c1=O [Compound 50]
IC50 [2]: 7 µM | Emax [2]: 98% | IC50 [3, 5]: 1 µM | IC50 [3, 4]: 4 µM | Emax [3, 6]: 93% | Emax ([3]; read-out: Average HTS Efficacy): 95%

O=C(O)c1cccc2c1NC(C(=O)O)C1CC(Sc3ccccc3[N+](=O)[O-])C(Cl)C21 (centres unmarked) [Compound 3]
Tamra Secondary Curve Class ([1]; Tamra-probe): 1.2 (≤80% (class 1.2)) | Tamra Secondary Efficacy ([1]; Tamra-probe): 72 % Inh. | Alexa488 Reconfirmed Curve Class ([2]; confirmatory retest): 1.2 (≤80% (class 1.2)) | Alexa488 Reconfirmed Efficacy ([2]; confirmatory retest): 61 % Inh. | Average HTS Efficacy ([3]; average over Alexa488 primary, Alexa488 reconfirmed and Tamra secondary assays): 71 % Inh. | Alexa488 Primary Efficacy ([3]; primary qHTS): 80 % Inh.

COc1ccc(NS(=O)(=O)c2ccc3c(c2)[C@H]2C=CC[C@H]2[C@@H](c2ccc(C(=O)O)cc2)N3)cc1 [Compound 40]
IC50 [1]: 24 µM | Tamra Secondary Curve Class ([1]; Tamra-probe): 2.2 (≤80% (class 2.2)) | Emax [1]: 96% | IC50 [2]: 10 µM | Emax [2]: 99% | IC50 [3, 5]: 25 µM | IC50 [3, 4]: 20 µM | Emax [3, 6]: 55% | Emax ([3]; read-out: Average HTS Efficacy): 83%

CCCCCC(=O)Nc1cc(S(=O)(=O)O)cc2cc(S(=O)(=O)O)cc(O)c12 [Compound 16]
IC50 [1]: 2 µM | Emax [1]: 84% | IC50 [2]: 2 µM | Emax [2]: 93% | IC50 [3, 5]: 76 µM | IC50 [3, 4]: 27 µM | Emax [3, 6]: 54% | Emax ([3]; read-out: Average HTS Efficacy): 77%

O=C(O)CCCNC(=O)/C=C/c1ccco1 [Compound 19]
IC50 [1]: 5 µM | Tamra Secondary Curve Class ([1]; Tamra-probe): 2.2 (≤80% (class 2.2)) | Emax [1]: 78% | IC50 [2]: 2 µM | Alexa488 Reconfirmed Curve Class ([2]; confirmatory retest): 1.2 (≤80% (class 1.2)) | Emax [2]: 73% | IC50 [3, 5]: 38 µM | IC50 [3, 4]: 15 µM | Alexa488 Primary Curve Class ([3]; primary qHTS): 1.2 (≤80% (class 1.2)) | Emax [3, 6]: 41% | Emax ([3]; read-out: Average HTS Efficacy): 64%

O=S(=O)(O)c1cc(O)c2cc(Nc3ccccc3)ccc2c1 [Compound 15]
IC50 [1]: 12 µM | Emax [1]: 300% | IC50 [2]: 11 µM | Alexa488 Reconfirmed Curve Class ([2]; confirmatory retest): 2.2 (≤80% (class 2.2)) | Emax [2]: 71% | IC50 [3, 5]: 10 µM | IC50 [3, 4]: 11 µM | Alexa488 Primary Curve Class ([3]; primary qHTS): 2.2 (≤80% (class 2.2)) | Emax [3, 6]: 27% | Emax ([3]; read-out: Average HTS Efficacy): 133%

Cc1oc(-c2ccc3c(c2)OCCO3)cc1C(=O)NC(Cc1ccccc1)C(=O)O (centres unmarked) [Compound 21]
IC50 [1]: 8 µM | Tamra Secondary Curve Class ([1]; Tamra-probe): 2.2 (≤80% (class 2.2)) | Emax [1]: 72% | IC50 [2]: 11 µM | Alexa488 Reconfirmed Curve Class ([2]; confirmatory retest): 2.2 (≤80% (class 2.2)) | Emax [2]: 56% | IC50 [3, 5]: 15 µM | IC50 [3, 4]: 11 µM | Alexa488 Primary Curve Class ([3]; primary qHTS): 1.2 (≤80% (class 1.2)) | Emax [3, 6]: 58% | Emax ([3]; read-out: Average HTS Efficacy): 62%

O=C(NC(Cc1ccccc1)C(=O)O)/C(=C\c1ccco1)NC(=O)c1ccccc1 (centres unmarked) [Compound 35]
IC50 [1]: 11 µM | Tamra Secondary Curve Class ([1]; Tamra-probe): 2.2 (≤80% (class 2.2)) | Emax [1]: 75% | IC50 [2]: 9 µM | Emax [2]: 112% | IC50 [3, 5]: 38 µM | IC50 [3, 4]: 19 µM | Emax [3, 6]: 26% | Emax ([3]; read-out: Average HTS Efficacy): 71%

Cc1ccc(C)n1-c1sccc1C(=O)O [Compound 18]
IC50 [1]: 2 µM | Emax [1]: 95% | IC50 [2]: 2 µM | Emax [2]: 91% | IC50 [3, 5]: 68 µM | IC50 [3, 4]: 24 µM | Emax [3, 6]: 44% | Emax ([3]; read-out: Average HTS Efficacy): 77%

Cc1c(C(=O)c2no[n+]([O-])c2C(=O)c2cnn(C)c2C)cnn1C [Compound 30]
IC50 [1]: 0.43 µM | Emax [1]: 80% | IC50 [2]: 0.34 µM | Emax [2]: 89% | IC50 [3, 5]: 3 µM | IC50 [3, 4]: 1.16 µM | Alexa488 Primary Curve Class ([3]; primary qHTS): 1.2 (≤80% (class 1.2)) | Emax [3, 6]: 69% | Emax ([3]; read-out: Average HTS Efficacy): 79%

O=C(c1ccc(=O)oc1)N1CCOCC1 [Compound 20]
IC50 [1]: 6 µM | Tamra Secondary Curve Class ([1]; Tamra-probe): 1.2 (≤80% (class 1.2)) | Emax [1]: 70% | IC50 [2]: 2 µM | Alexa488 Reconfirmed Curve Class ([2]; confirmatory retest): 1.2 (≤80% (class 1.2)) | Emax [2]: 77% | IC50 [3, 5]: 14 µM | IC50 [3, 4]: 7 µM | Emax [3, 6]: 73% | Emax ([3]; read-out: Average HTS Efficacy): 73%
